Reference: patent US20080287478A1 (priority 2003, published 2008)
Counter-ions that a name gives are not always drawn. Like-named read-outs stand apart in the source and are kept apart here.

Legend:
Male SD/TAC rats = experiment: animal or person; format: in vivo, rat; settings: for response vs control in vivo at 3 µmol/kg / minimal effective dose / ED (max): Rattus norvegicus; for minimal effective dose: read-out: Lovest Dose at which increased diuresis is achieved nMol/kg. I.e. >1.5 SC; for ED (max): read-out: SC Dose at which max diuresis is achieved nMol/kg
mice = settings: mouse, in vivo, iv
male NMRI mice = settings: mouse, in vivo, iv; for dose at which the mice died after injection / time to death after injection: male, NMRI
in vivo = settings: male, Sprague-Dawley, rat
[1] = rat, in vivo

| Molecule | response vs control in vivo at 3 µmol/kg (Male SD/TAC rats; po, read-out: PO max effect.) | minimal effective dose (Male SD/TAC rats; sc) | ED (max) (Male SD/TAC rats; sc) | response vs control in vivo at 3 µmol/kg (Male SD/TAC rats; sc, read-out: SC max effect.) | Lovest Dose at which increased diuresis is achieved nMol/kg. I.e. >1.5 IV (Male SD/TAC rats; rat, in vivo) | Lovest Dose at which increased diuresis is achieved nMol/kg. I.e. >1.5 PO (Male SD/TAC rats; rat, in vivo, po) | PO Dose at which max diuresis is achieved (Male SD/TAC rats; rat, in vivo, po) | PO Dose at which max diuresis is achieved nMol/kg (Male SD/TAC rats; rat, in vivo, po) | CNS motility* (Minimal effective dose nmol/kg) (mice) | dose with statistical significant decrease in locomotor activity during the first 15 minutes (mice) | locomotor activity / activity count during the first 30 minutes versus vehicle (mice) | dose at which the mice died after injection (male NMRI mice) | time to death after injection (male NMRI mice) | CNS grid shock* (Minimal effective dose nmol/kg) (male NMRI mice) | gridshock response versus vehicle (male NMRI mice) | half-life (in vivo) | Lovest Dose at which increased diuresis is achieved nMol/kg. I.e. >1.5 SC (Male SD/TAC rats; rat, in vivo, sc) | SC Dose at which max diuresis is achieved (Male SD/TAC rats; rat, in vivo, sc) | SC max effect. (Male SD/TAC rats; rat, in vivo, sc) | oral availability (in words) [1] |
| --- | --- | --- | --- | --- | --- | --- | --- | --- | --- | --- | --- | --- | --- | --- | --- | --- | --- | --- | --- | --- |
| CC(C)[C@H]1CC[C@@H](N2CCC3(CC2)C(=O)N(CCCCCCCCCN2CN(c4ccccc4)C4(CCN([C@H]5CC[C@@H](C(C)C)CC5)CC4)C2=O)CN3c2ccccc2)CC1 [Compound 25, 1,9-bis-(cis-8-(4-isopropyl-cyclohexyl)-1-phenyl-1,3,8-triaza-spiro[4.5]decan-4-one-3-yl)-nonane] | 250% | 0.01 µmol/kg | 1000 nmol/kg | 250% | 10^−5 nMol/kg | 10 nmol/kg | 1000 nmol/kg | – | – | – | – | – | – | – | – | – | – | – | – | – |
| CC(C)[C@H]1CC[C@@H](N2CCC3(CC2)C(=O)N(CCCNCCNCCNCCCNCCN)CN3c2ccccc2)CC1 [Compound 33, cis-8-(4-Isopropyl-cyclohexyl)-3-(4,7,10,14,17-pentaazaheptadecyl)-1-phenyl-1,3,8-triaza-spiro[4.5]decan-4-one] | 160% | 0.0001 µmol/kg | 1000 nmol/kg | 330% | – | 1000 nmol/kg | 1000 nmol/kg | – | – | – | – | – | – | – | – | – | – | – | – | – |
| CC(C)[C@H]1CC[C@@H](N2CCC3(CC2)C(=O)N(CCCCCCNCCNCCCNCCNCCN)CN3c2ccccc2)CC1 [Compound 34, cis-8-(4-Isopropyl-cyclohexyl)-3-(7,10,14,17,20-pentaazaeicosanyl)-1-phenyl-1,3,8-triaza-spiro[4.5]decan-4-one] | 200% | 0.01 µmol/kg | 100 nmol/kg | 490% | 0.0001 nmol/kg | 0.1 nmol/kg | – | 0.1; 10 nMol/kg | 100 nmol/kg | 1000 nmol/kg | No statistical significant difference | 2000 nmol/kg | approximately 2 minutes | 300 nmol/kg | No statistical significant difference | – | – | – | – | – |
| CC(C)[C@H]1CC[C@@H](N2CCC3(CC2)C(=O)N(CCCN2CCCNCCNCCCNCC2)CN3c2ccccc2)CC1 [Compound 36, cis-8-(4-Isopropyl-cyclohexyl)-1-phenyl-3-[3-(1,4,8,11-tetraaza-cyclotetradec-1-yl)-propyl]-1,3,8-triaza-spiro[4.5]decan-4-one] | 240% | – | – | – | 10 nmol/kg | 1000 nmol/kg | 1000 nmol/kg | – | 100 nmol/kg | – | – | 2000 nmol/kg | approximately 1 | 1000 nmol/kg | – | 2 h | – | – | – | – |
| O=C(O)C(F)(F)F [TFA, Trifluoroacetic acid] | – | – | – | – | – | – | – | – | – | – | No statistical significant difference | – | – | – | No statistical significant difference | – | – | – | – | – |
| cis and trans-3-(Methoxycarbonylmethyl-)-8-(4-isopropyl-cyclohexyl)-1-phenyl-1,3,8-triaza-spiro[4.5]decan-4-one [Compound 10] | – | – | – | – | – | – | – | – | – | – | – | – | – | – | – | – | 1000 nmol/kg | 1000 nmol/kg | 1.9 | – |
| cis-(8-(4-Isopropyl-cyclohexyl)-1-phenyl-1,3,8-triaza-spiro[4.5]decan-4-one)-acetic acid [Compound 11] | – | – | – | – | 10 nmol/kg | – | – | – | >10000 nmol/kg | – | No statistical significant difference | – | – | – | No statistical significant difference | – | 1000 nmol/kg | 1000 nmol/kg | 2.0 | orally available |
